What was measured:
Russian thistle = experiment: Test C pre-/postemergence herbicide test; type: in vivo, Salsola kali; settings: Preemergence
Text: Seeds of plant species selected from blackgrass (Alopecurus myosuroides), ryegrass, Italian (Italian ryegrass, Lolium multiflorum), wheat (winter wheat, Triticum aestivum), galium (catchweed bedstraw, Galium aparine), corn (Zea mays), crabgrass, large (large crabgrass, Digitaria sanguinalis), foxtail, giant (giant foxtail, Setaria faberii), johnsongrass (Sorghum halepense), lambsquarters (Chenopodium album), morningglory (Ipomoea coccinea), nutsedge, yellow (yellow nutsedge, Cyperus esculentus), pigweed (Amaranthus retroflexus), ragweed (common ragweed, Ambrosia elatior), soybean (Glycine max), barnyardgrass (Echinochloa crus-galli), oilseed rape (Brassica napus), waterhemp (common waterhemp, Amaranthus rudis), kochia (Kochia scoparia), oat, wild (wild oat, Avena fatua), surinam grass (Brachiaria decumbens), foxtail, green (green foxtail, Setaria viridis), goosegrass (Eleusine indica), bromegrass, downy (downy bromegrass, Bromus tectorum), nightshade (eastern black nightshade, Solanum ptycanthum), cocklebur (common cocklebur, Xanthium strumarium), cupgrass, woolly (woolly cupgrass, Eriochloa villosa), bermudagrass (Cynodon dactylon), sunflower, (common oilseed sunflower, Helianthus annuus), Russian thistle (Salsola kali) and velvetleaf (Abutilon theophrasti) were planted into a blend of loam soil and sand and treated preemergence with test chemicals formulated in a non-phytotoxic solvent mixture which included a surfactant. At the same time, plants selected from these crop and weed species and also barley (winter barley, Hordeum vulgare), […]), chickweed (common chickweed, Stellaria media), deadnettle (henbit deadnettle, Lamium amplexicaule), and canarygrass (littleseed canarygrass, Phalaris minor) were planted in pots containing Redi-Earth® planting medium (Scotts Company, 14111 Scottslawn Road, Marysville, Ohio 43041) comprising spaghnum peat moss, vermiculite, wetting agent and starter nutrients and treated with postemergence applications of test chemicals formulated in the same manner. Plants ranged in height from 2 to 18 cm (1- to 4-leaf stage) for postemergence treatments. Treated plants and controls were maintained in a greenhouse for 13 to 15 days, after which time all species were compared to controls and visually evaluated. Plant response ratings, summarized in Table C, are based on a scale of 0 to 100 where 0 is no effect and 100 is complete control. A dash (-) response means no test result.

cocklebur = experiment: Test E preemergence herbicide test; type: in vivo, Xanthium strumarium; parameters: key: 0 = no effect, 100 = complete control
Text: (§1) Seeds of plant species selected from corn (Zea mays), soybean (Glycine max), velvetleaf (Abutilon theophrasti), lambsquarters (Chenopodium album), wild poinsettia (Euphorbia heterophylla), pigweed, palmer (palmer pigweed, Amaranthus palmeri), waterhemp (common waterhemp, Amaranthus rudis), surinam grass (Brachiaria decumbens), crabgrass, large (large crabgrass, Digitaria sanguinalis), crabgrass, Brazil (Brazilian crabgrass, Digitaria horizontalis), panicum, fall (fall panicum, Panicum dichotomiflorum), foxtail, giant (giant foxtail, Setaria faberii), foxtail, green (green foxtail, Setaria viridis), goosegrass (Eleusine indica), johnsongrass (Sorghum halepense), ragweed (common ragweed, Ambrosia elatior), barnyardgrass (Echinochloa crus-galli), sandbur (southern sandbur, Cenchrus echinatus), arrowleaf […] rhombifolia), ryegrass, Italian (Italian ryegrass, Lolium multiflorum), dayflower, VA (Virginia dayflower, Commelina virginica), field bindweed (Convolvulus arvensis), morningglory (Ipomoea coccinea), nightshade (eastern black nightshade, Solanum ptycanthum), kochia (Kochia scoparia), nutsedge, yellow (yellow nutsedge, Cyperus esculentus), cocklebur (common cocklebur, Xanthium strumarium), smartweed (ladysthumb smartweed, Polygonum Persicaria) and beggarticks (hairy beggarticks, Bidens pilosa), were planted into a silt loam soil and treated preemergence with test chemicals formulated in a non-phytotoxic solvent mixture which included a surfactant. Treated plants and controls were maintained in a greenhouse for 21 days, after which time all species were compared to controls and visually evaluated. Plant response ratings, summarized in Table E, are based on a scale of 0 to 100 where 0 is no effect and 100 is complete control. A dash (-) response means no test result.

smartweed = experiment: Test E preemergence herbicide test; type: in vivo, Polygonum Persicaria
Text: as §1

Rice, W.S. Ind = experiment: Test F flood (paddy) test; type: in vivo, Oryza sativa Indica; settings: 21 d, scale 0-100
Procedure, shortened: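 Compounds were applied directly to paddy water held 3 cm above silt loam soil, with rice and weeds at the 2.0–2.5-leaf stage, grown in a greenhouse at 30/27° C under a 16-h photoperiod. Visual ratings (0 no effect to 100 complete control) were made against untreated controls after 21 d.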

sedge, umbrella = experiment: Test F flood (paddy) test; type: in vivo, Cyperus difformis; settings: 21 d, scale 0-100
Text: (§2) Three plastic pots (ca. 16-cm diameter) per rate were partially filled with sterilized Tama silt loam soil comprising a 35:50:15 ratio of sand, silt and clay and 2.6% organic matter. Separate plantings for each of the three pots were as follows. Seeds from the U.S. of monochoria (Monochoria vaginalis), sedge, umbrella (small-flower umbrella sedge, Cyperus difformis), bulrush, […] bulrush, Scirpus juncoides), and […] (purple […] coccinea), were planted into one 16-cm pot for each rate. Seeds from the U.S. of flatsedge, rice (rice flatsedge, Cyperus iria), sprangletop, Brdd. (bearded sprangletop, Leptochloa fascicularis), one stand of 9 or 10 water seeded rice seedlings (Rice, W.S. Jap, Oryza sativa cv. 'Japonica-[…]' or Rice, W.S. Ind, 'Indica'), and two stands of 3 or 4 seedlings of rice, transplanted (transplanted rice, Oryza sativa cv. 'Japonica-[…]') were planted into one 16-cm pot for each rate. Seeds from the U.S. of barnyardgrass (Echinochloa crus-galli), […] (common […], Alisma plantago-aquatica), and watergrass, late (late watergrass, Echinochloa oryzicola) were planted into one 16-cm pot for each rate. Plantings were sequential so that crop and weed species were at the 2.0 to 2.5-leaf stage at time of treatment. Potted plants were grown in a greenhouse with day/night temperature settings of 30/27° C., and supplemental balanced lighting was provided to maintain a 16-h photoperiod. Test pots were maintained in the greenhouse until test completion. At time of treatment, test pots were flooded to 3 cm above the soil surface, treated by application of test compounds directly to the paddy water, and then maintained at that water depth for the duration of the test. Effects of treatments on rice and weeds were visually evaluated by comparison to untreated controls after 21 d. Plant response ratings, summarized in Table F, are based on a scale of 0 to 100 where 0 is no effect and 100 is complete control. A dash (-) response means no test result.

flatsedge, rice = experiment: Test F flood (paddy) test; type: in vivo, Cyperus iria; settings: 21 d, scale 0-100
Text: as §2

bulrush, hardstem = experiment: Test F flood (paddy) test; type: in vivo, Scirpus juncoides; settings: 21 d, scale 0-100
Text: as §2

[1] = 125 g ai/ha, scale 0 to 100 (0 no effect, 100 complete control)

Compound | Plant response rating, Russian Thistle (Russian thistle; 62 g ai/ha, scale 0 to 100) | Plant response rating, Cocklebur (cocklebur; 62 g ai/ha) | Plant response rating, Cocklebur (cocklebur; 125 g ai/ha) | Plant response rating, Cocklebur (cocklebur; 250 g ai/ha) | Plant response rating, Rice, W.S. Ind (Rice, W.S. Ind; 125 g ai/ha) | Plant response rating, Rice, W.S. Ind (Rice, W.S. Ind; 250 g ai/ha) | Plant response rating, Rice, W.S. Ind (Rice, W.S. Ind; 500 g ai/ha) | Plant response rating, Sedge, Umbrella (sedge, umbrella; 125 g ai/ha) | Plant response rating, Sedge, Umbrella (sedge, umbrella; 250 g ai/ha) | Plant response rating, Sedge, Umbrella (sedge, umbrella; 500 g ai/ha) | Plant response rating, Flatsedge, Rice (flatsedge, rice; 125 g ai/ha) | Plant response rating, Flatsedge, Rice (flatsedge, rice; 250 g ai/ha) | Plant response rating, Flatsedge, Rice (flatsedge, rice; 500 g ai/ha) | other results
O=C1NCC(c2ccc(Cl)c(Cl)c2)C1C(=O)Nc1ccccc1F (racemic) [Compound 14] | 0 | 0 | 0 | 0 | – | – | – | – | – | – | – | – | – | Plant response rating, Russian Thistle (Russian thistle; [1]): 0; Plant response rating, Smartweed (smartweed; 125 g ai/ha): 0
O=C1NCC(c2ccc(F)c(F)c2)C1C(=O)Nc1cccc(F)c1F (racemic) [Compound 101] | – | – | – | – | 20 | 35 | 60 | – | – | – | – | – | – | Plant response rating, Rice, W.S. Ind (Rice, W.S. Ind; 64 g ai/ha): 0
O=C1NCC(c2cccc(C(F)F)c2)C1C(=O)Nc1ccccc1F (racemic) [Compound 210] | – | – | – | – | 0 | 0 | 0 | – | – | – | – | – | – | –
O=C1NCCC1C(=O)N(c1ccc(F)c(F)c1)c1ccccc1F (stereo not shown) [Compound 5, N-(3,4-difluorophenyl)-N-(2-fluorophenyl)-2-oxo-3-pyrrolidinecarboxamide] | 0 | – | – | – | – | – | – | 0 | 0 | 0 | 0 | 0 | 0 | Plant response rating, Sedge, Umbrella (sedge, umbrella; 1000 g ai/ha): 0; Plant response rating, Sedge, Umbrella (sedge, umbrella; 2000 g ai/ha): 0; Plant response rating, Flatsedge, Rice (flatsedge, rice; 1000 g ai/ha): 0; Plant response rating, Flatsedge, Rice (flatsedge, rice; 2000 g ai/ha): 0
O=C1NCC(c2ccc(F)c(F)c2)C1C(=O)Nc1cccc(F)c1F (stereo not shown) [Compound 17, N-(2,3-difluorophenyl)-4-(3,4-difluorophenyl)-2-oxo-3-pyrrolidinecarboxamide] | – | 0 | 0 | – | – | – | – | 0 | 0 | 0 | 20 | 20 | 20 | Plant response rating, Cocklebur (cocklebur; 16 g ai/ha): 0; Plant response rating, Cocklebur (cocklebur; 31 g ai/ha): 0; Plant response rating, Sedge, Umbrella (sedge, umbrella; 1000 g ai/ha): 0; Plant response rating, Sedge, Umbrella (sedge, umbrella; 2000 g ai/ha): 20; Plant response rating, Bulrush, Hardstem (bulrush, hardstem; 125 g ai/ha): 0; Plant response rating, Bulrush, Hardstem (bulrush, hardstem; 250 g ai/ha): 0; Plant response rating, Bulrush, Hardstem (bulrush, hardstem; 500 g ai/ha): 0; Plant response rating, Bulrush, Hardstem (bulrush, hardstem; 1000 g ai/ha): 0; Plant response rating, Bulrush, Hardstem (bulrush, hardstem; 2000 g ai/ha): 40; Plant response rating, Flatsedge, Rice (flatsedge, rice; 1000 g ai/ha): 35; Plant response rating, Flatsedge, Rice (flatsedge, rice; 2000 g ai/ha): 40
O=C1NCC(c2ccc(F)c(Cl)c2)C1C(=O)Nc1ccccc1F (stereo not shown) [Compound 60] | 50 | – | – | – | – | – | – | – | – | – | – | – | – | Plant response rating, Russian Thistle (Russian thistle; [1]): 60
O=C1NCC(c2ccc(C(F)(F)F)cc2)C1C(=O)Nc1cccc(F)c1F (stereo not shown) [Compound 80, N-(2,3-difluorophenyl)-2-oxo-4-[4-(trifluoromethyl)phenyl]-3-pyrrolidinecarboxamide] | – | 0 | 0 | 0 | – | – | – | – | – | – | – | – | – | Plant response rating, Cocklebur (cocklebur; 16 g ai/ha): 0; Plant response rating, Smartweed (smartweed; 16 g ai/ha): 0; Plant response rating, Smartweed (smartweed; 31 g ai/ha): 0; Plant response rating, Smartweed (smartweed; 62 g ai/ha): 20; Plant response rating, Smartweed (smartweed; 250 g ai/ha): 40
O=C1NC[C@H](c2cccc(C(F)(F)F)c2)[C@H]1C(=O)Nc1ccccc1F [Compound 204, (3R,4S)—N-(2-fluorophenyl)-2-oxo-4-[3-(trifluoromethyl)phenyl]-3-pyrrolidinecarboxamide] | – | – | – | – | 0 | 10 | 20 | – | – | – | – | – | – | –
O=C1NC[C@H](c2cccc(C(F)(F)F)c2)[C@H]1C(=O)Nc1cccc(F)c1F [Compound 206] | – | 0 | 0 | 0 | 25 | 45 | 65 | – | – | – | – | – | – | Plant response rating, Cocklebur (cocklebur; 31 g ai/ha): 0; Plant response rating, Rice, W.S. Ind (Rice, W.S. Ind; 64 g ai/ha): 15
CN1CC(c2ccc(F)c(F)c2)C(C(=O)Nc2cccc(F)c2F)C1=O (stereo not shown) [Compound 303] | – | – | – | – | 25 | 40 | 70 | 0 | 0 | 0 | 0 | 0 | 0 | Plant response rating, Sedge, Umbrella (sedge, umbrella; 62 g ai/ha): 0; Plant response rating, Bulrush, Hardstem (bulrush, hardstem; 62 g ai/ha): 0; Plant response rating, Bulrush, Hardstem (bulrush, hardstem; 125 g ai/ha): 0; Plant response rating, Bulrush, Hardstem (bulrush, hardstem; 250 g ai/ha): 70; Plant response rating, Bulrush, Hardstem (bulrush, hardstem; 500 g ai/ha): 80; Plant response rating, Flatsedge, Rice (flatsedge, rice; 62 g ai/ha): 0
